Measurements from the supplement of paper PMC10307832.

Key:
Test in all cases: relative viability (nuclei count vs DMSO), 5 days (fraction); higher = more cells survive
Mirin + OSI-027 = compound: N=C1NC(=O)/C(=C/c2ccc(O)cc2)S1 [Mirin] + COc1cccc2cc(-c3nc([C@H]4CC[C@H](C(=O)O)CC4)n4ncnc(N)c34)[nH]c12 [OSI-027] (partner 0.5 µM)
In short: (§1)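 Relative viability was taken as the ratio of nuclei in treated wells to nuclei in vehicle wells. Lung cancer cell lines in 1536-well plates received compounds by pin tool one day after seeding, either one drug alone or a fixed anchor-drug dose plus five library-drug doses (not always all listed) in √10 steps. Nuclei were counted on 4× images after 5 days of treatment, and values are medians of duplicate plates.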

[1] = compound: CCn1c(-c2nonc2N)nc2cnc(Oc3cccc(NC(=O)c4ccc(OCCN5CCOCC5)cc4)c3)cc21 + Nc1nc2[nH]cc(CCc3ccc(C(=O)N[C@@H](CCC(=O)O)C(=O)O)cc3)c2c(=O)[nH]1 [Pemetrexed] (partner 0.2 µM)
In short: as §1

[2] = compound: CCC1=CN=CN=C1N2CCN(CC2)CC3=NC4=C(N3)C=C(C=C4)C(F)(F)F + C[C@]1(O)C[C@@H](c2nc(-c3ccc4ccc(-c5ccccc5)nc4c3)c3c(N)nccn32)C1 [Linsitinib] (partner 1 µM)
In short: as §1

[3] = compound: CCC1=CN=CN=C1N2CCN(CC2)CC3=NC4=C(N3)C=C(C=C4)C(F)(F)F + CC(C)C[C@H](NC(=O)[C@H](Cc1ccccc1)NC(=O)c1cnccn1)B(O)O [Bortezomib] (partner 0.002 µM)
In short: as §1

Row | Cell Line | relative viability (Mirin + OSI-027; first compound 0.25 µM) | relative viability (Mirin + OSI-027; first compound 0.7906 µM) | relative viability (Mirin + OSI-027; first compound 2.5 µM) | relative viability (Mirin + OSI-027; first compound 7.906 µM) | relative viability (Mirin + OSI-027; first compound 25 µM) | relative viability ([1]; first compound 0.04 µM) | relative viability ([1]; first compound 0.1265 µM) | relative viability ([1]; first compound 0.4 µM) | relative viability ([1]; first compound 1.265 µM) | relative viability ([1]; first compound 4 µM) | relative viability ([2]; first compound 0.04 µM) | relative viability ([2]; first compound 0.1265 µM) | relative viability ([2]; first compound 0.4 µM) | relative viability ([2]; first compound 1.265 µM) | relative viability ([2]; first compound 4 µM) | relative viability ([3]; first compound 0.04 µM) | relative viability ([3]; first compound 0.1265 µM) | relative viability ([3]; first compound 0.4 µM) | relative viability ([3]; first compound 1.265 µM) | relative viability ([3]; first compound 4 µM)
1 | NCI-H520 | 0.241 | 0.289 | 0.257 | 0.222 | 0.177 | 1.01 | 0.662 | 0.634 | 0.372 | 0.336 | 0.908 | 0.93 | 0.886 | 0.773 | 0.861 | 0.699 | 0.48 | 0.642 | 0.534 | 0.472
2 | NCI-H596 | 0.826 | 0.747 | 0.842 | 0.587 | 0.746 | 0.438 | 0.484 | 0.462 | 0.451 | 0.48 | 1.14 | 1.08 | 1.09 | 1.06 | 1.02 | 1.03 | 1.11 | 0.846 | 0.946 | 1.15
3 | NCI-H647 | 0.759 | 0.688 | 0.572 | 0.645 | 0.503 | 0.21 | 0.16 | 0.143 | 0.122 | 0.137 | 1.33 | 1.18 |  | 1.24 | 1.31 | 1.3 | 0.938 |  | 0.884 | 0.955
4 | NCI-H650 | 0.478 | 0.628 | 0.523 |  | 0.58 | 1.05 | 0.799 | 0.454 | 0.425 | 0.458 | 0.7 | 1.03 | 1.01 | 0.864 | 0.804 | 0.68 | 0.797 | 0.672 | 0.841 | 0.959
5 | NCI-H661 | 0.755 | 0.893 | 0.702 | 0.62 | 0.606 | 0.922 | 0.994 | 0.893 | 0.74 | 0.513 | 0.711 | 0.629 | 0.622 |  | 0.483 | 0.845 | 0.809 | 0.696 |  | 0.782
6 | NCI-H838 | 0.394 | 0.394 | 0.414 | 0.374 | 0.406 | 0.252 | 0.218 | 0.187 | 0.179 | 0.156 | 0.991 | 0.912 | 0.941 | 0.916 | 1.05 | 0.945 | 0.747 | 0.782 | 0.597 | 1.03
7 | NCI-H1355 | 0.411 | 0.376 | 0.379 | 0.406 | 0.424 | 1.12 | 1.05 | 0.769 | 0.835 | 0.581 | 0.852 | 0.745 | 0.806 | 0.732 | 0.913 | 1.21 | 1.17 | 1.22 | 1.07 | 1.38
8 | NCI-H1437 | 0.853 | 0.895 | 0.948 | 0.832 | 0.643 | 0.324 | 0.317 | 0.297 | 0.216 | 0.201 | 1.03 | 0.967 | 0.896 | 0.836 | 0.634 | 0.528 | 0.484 | 0.431 | 0.474 | 0.504
